Measured values: PMC13308190, “Endothelial progenitor cell susceptibility to DNA damaging and DDR-modulating compounds determines endothelial differentiation accuracy” (Stem Cell Research & Therapy, 2026)

Assays:
Assay type in all cases: cell-based, mouse
[1] = tested on: EC d6 (endothelial-like cells); assay: RT-qPCR mRNA expression; settings: for Cdkn1a mRNA / Cdkn2a mRNA / Glb1 mRNA / Il6 mRNA / Il8 mRNA / Tp53 mRNA: Fig 7C; for Atp7a mRNA / Atp7b mRNA / Ctr2 mRNA / Mdr1 mRNA / Mrp1 mRNA / Oct2 mRNA: Fig 2D
Description: (§1) Total RNA was purified using the RNeasy Mini Kit (Qiagen, Hilden, Germany). Reverse transcriptase (RT) reaction was performed with the HighCapacity cDNA Reverse Transcription Kit (Applied Biosystems, Darmstadt, Germany) using 900–2000 ng of RNA. Quantitative RT-qPCR analysis was performed using following conditions: (1) 95 °C–10 min; (2) 45 amplification cycles with 95 °C–15 s, 55 °C–15 s, and 72 °C–17 s; (3) 95 °C–1 min, 55 °C–1 min, 65 °C–5 s. If not stated otherwise, analyses were performed in technical triplicates using pooled samples from two independent experiments (each performed with biological duplicates) by use of a CFX96 cycler (BioRad) and the SensiMix SYBR Kit (Bioline, London, UK). The primers used for mRNA expression analyses are listed in Supplementary Table 1. To ensure the specificity of the amplification product, melting curves were recorded at the end of the run. mRNA expression levels were normalized to β-Actin and Gapdh. Relative mRNA expression in mESC or corresponding untreated controls was set to 1.0. Only changes in gene expression of ≤ 0.5- and ≥ 2-fold were considered as biologically relevant.

EC d4 = assay: EdU incorporation (S-phase activity); settings: EC d4 48 h
Description: S-phase activity of cells was monitored by measuring EdU incorporation using the EdU-Click 488 assay according to the manufacturer’s protocol. Briefly, cells were pulse-treated with 5-ethynyl-2′-deoxyuridine (EdU) for 3 h. Alexa Fluor 488-conjugated reaction cocktail was added (30 min, RT) and nuclei were counterstained with DAPI. The percentage of EdU-positive area/DAPI-positive area was calculated by fluorescence microscopy (Olympus BX43, 20x objective).

mESC = assay: RT-qPCR mRNA expression; settings: for Cdkn1a mRNA / Cdkn2a mRNA / Glb1 mRNA / Il6 mRNA / Il8 mRNA / Tp53 mRNA: Fig 7A; for Atp7a mRNA / Atp7b mRNA / Ctr2 mRNA / Mdr1 mRNA / Mrp1 mRNA / Oct2 mRNA: Fig 2D
Description: as §1, with “relevant. Fold-changes in gene expression are summarized in Supplementary Table 2.” for “relevant.”

[2] = tested on: EC d6 (endothelial-like cells); assay: Western blot protein expression (densitometry); settings: EC d6 24 h; for CHK1 protein / RAD51 protein / gH2AX protein / p-CHK2 protein / p-KAP1 protein / p-RPA32 protein / p-p53 protein: Fig 5D
Description: Total protein cell extracts were obtained upon sonication in RIPA buffer (EpiShearTM Probe sonicator, Active Motif [La Hulpe, Belgium]). Protein concentrations were determined using the DC Protein Assay (BioRad [Munich, Germany]). Extracts were supplemented with Roti®-Load buffer (Carl Roth GmbH [Karlsruhe, Germany]) followed by heating (95 °C for 5 min). 20 µg of protein was separated by SDS-PAGE and transferred onto nitrocellulose membrane. After blocking (5% non-fat milk in TBS/0.1% Tween 20 or 5% BSA in TBS/0.1% Tween 20) (1 h, RT) membrane was incubated with primary antibodies (1:500–5000; overnight, 4 °C). After washing with TBS/0.1% Tween 20, peroxidase-conjugated secondary antibody (1:2000) was added (2 h, RT) and bands were visualized using ChemiDoxTM Touch imaging system (BioRad, Munich, Germany).

[3] = EC d6 + 0.05 µM 24 h + 24 h post incubation
[4] = EC d6 + 0.1 µM 24 h + 24 h post incubation
[5] = mESC + 0.05 µM 24 h + 24 h post incubation
[6] = mESC + 0.1 µM 24 h + 24 h post incubation
[7] = concentration 1 (Dox 1/B02 1/EST 1)
[8] = concentration 2 (Dox 2/B02 2/EST 2)

COc1cccc2c1C(=O)c1c(O)c3c(c(O)c1C2=O)C[C@@](O)(C(=O)CO)C[C@@H]3O[C@H]1C[C@H](N)[C@H](O)[C@H](C)O1 [Dox, doxorubicin]
Cdkn1a mRNA [1, 3]: 4.38 Fold of untreated control | Cdkn2a mRNA [1, 3]: 1.77 Fold of untreated control | Glb1 mRNA [1, 3]: 1.49 Fold of untreated control | Il6 mRNA [1, 3]: 1.91 Fold of untreated control | Il8 mRNA [1, 3]: 1.31 Fold of untreated control | Tp53 mRNA [1, 3]: 1.15 Fold of untreated control | Atp7a mRNA ([1]; EC d6 + 0.05 µM 24 h): 1.47 Fold of control | Atp7b mRNA ([1]; EC d6 + 0.05 µM 24 h): 0.99 Fold of control | Ctr2 mRNA ([1]; EC d6 + 0.05 µM 24 h): 1.13 Fold of control | Mdr1 mRNA ([1]; EC d6 + 0.05 µM 24 h): 4.89 Fold of control | Mrp1 mRNA ([1]; EC d6 + 0.05 µM 24 h): 1.23 Fold of control | Oct2 mRNA ([1]; EC d6 + 0.05 µM 24 h): 0.25 Fold of control | Gpx1 mRNA ([1]; EC d6 + 0.05 µM 24 h, Fig 6C): 1.10 Fold of untreated control | Gpx4 mRNA ([1]; EC d6 + 0.05 µM 24 h, Fig 6C): 1.68 Fold of untreated control | Gstm1 mRNA ([1]; EC d6 + 0.05 µM 24 h, Fig 6C): 2.52 Fold of untreated control | Hmox1 mRNA ([1]; EC d6 + 0.05 µM 24 h, Fig 6C): 2.63 Fold of untreated control | Pgc1a mRNA ([1]; EC d6 + 0.05 µM 24 h, Fig 6C): 10.96 Fold of untreated control | Sod1 mRNA ([1]; EC d6 + 0.05 µM 24 h, Fig 6C): 2.60 Fold of untreated control | Sod2 mRNA ([1]; EC d6 + 0.05 µM 24 h, Fig 6C): 1.17 Fold of untreated control | Slc7a11 mRNA ([1]; EC d6 + 0.05 µM 24 h, Fig 6F): 0.82 Fold of untreated control | Cdkn1a mRNA [1, 4]: 5.67 Fold of untreated control | Cdkn2a mRNA [1, 4]: 2.66 Fold of untreated control | Glb1 mRNA [1, 4]: 1.97 Fold of untreated control | Il6 mRNA [1, 4]: 3.23 Fold of untreated control | Il8 mRNA [1, 4]: 1.15 Fold of untreated control | Tp53 mRNA [1, 4]: 1.09 Fold of untreated control | Atp7a mRNA ([1]; EC d6 + 0.1 µM 24 h): 1.77 Fold of control | Atp7b mRNA ([1]; EC d6 + 0.1 µM 24 h): 1.11 Fold of control | Ctr2 mRNA ([1]; EC d6 + 0.1 µM 24 h): 1.27 Fold of control | Mdr1 mRNA ([1]; EC d6 + 0.1 µM 24 h): 11.55 Fold of control | Mrp1 mRNA ([1]; EC d6 + 0.1 µM 24 h): 1.40 Fold of control | Oct2 mRNA ([1]; EC d6 + 0.1 µM 24 h): 1.39 Fold of control | Brca1 mRNA ([1]; EC d6 + 0.1 µM 24 h, Fig 5C): 0.45 Fold of mESC | Chk1 mRNA ([1]; EC d6 + 0.1 µM 24 h, Fig 5C): 0.43 Fold of mESC | Rad51 mRNA ([1]; EC d6 + 0.1 µM 24 h, Fig 5C): 0.48 Fold of mESC | Pgc1a mRNA ([1]; EC d6 + 0.1 µM 24 h, Fig 6D): 21.56 Fold of untreated control | Gpx4 mRNA ([1]; EC d6 + 0.1 µM 24 h, Fig 6F): 0.99 Fold of untreated control | Slc7a11 mRNA ([1]; EC d6 + 0.1 µM 24 h, Fig 6F): 1.09 Fold of untreated control | Cldn5 mRNA ([1]; EC d6 + 0.1 µM 24 h, Fig 8C): 2.50 Fold of EC d4 or d6 | Ocln mRNA ([1]; EC d6 + 0.1 µM 24 h, Fig 8C): 1.79 Fold of EC d4 or d6 | Tjp1 mRNA ([1]; EC d6 + 0.1 µM 24 h, Fig 8C): 1.21 Fold of EC d4 or d6 | S-phase activity (EdU-positive cells) (EC d4): decrease in S-phase activity | Cdkn1a mRNA (mESC; [5]): 2.20 Fold of untreated control | Cdkn2a mRNA (mESC; [5]): 2.02 Fold of untreated control | Glb1 mRNA (mESC; [5]): 1.22 Fold of untreated control | Il6 mRNA (mESC; [5]): 2.74 Fold of untreated control | Il8 mRNA (mESC; [5]): 1.29 Fold of untreated control | Tp53 mRNA (mESC; [5]): 0.86 Fold of untreated control | Atp7a mRNA (mESC; mESC + 0.05 µM 24 h): 2.50 Fold of control | Atp7b mRNA (mESC; mESC + 0.05 µM 24 h): 1.82 Fold of control | Ctr2 mRNA (mESC; mESC + 0.05 µM 24 h): 2.95 Fold of control | Mdr1 mRNA (mESC; mESC + 0.05 µM 24 h): 4.03 Fold of control | Mrp1 mRNA (mESC; mESC + 0.05 µM 24 h): 2.38 Fold of control | Oct2 mRNA (mESC; mESC + 0.05 µM 24 h): 5.33 Fold of control | Gpx1 mRNA (mESC; mESC + 0.05 µM 24 h, Fig 6C): 1.54 Fold of untreated control | Gpx4 mRNA (mESC; mESC + 0.05 µM 24 h, Fig 6C): 0.62 Fold of untreated control | Gstm1 mRNA (mESC; mESC + 0.05 µM 24 h, Fig 6C): 2.08 Fold of untreated control | Hmox1 mRNA (mESC; mESC + 0.05 µM 24 h, Fig 6C): 1.14 Fold of untreated control | Pgc1a mRNA (mESC; mESC + 0.05 µM 24 h, Fig 6C): 1.78 Fold of untreated control | Sod1 mRNA (mESC; mESC + 0.05 µM 24 h, Fig 6C): 1.30 Fold of untreated control | Sod2 mRNA (mESC; mESC + 0.05 µM 24 h, Fig 6C): 1.10 Fold of untreated control | Gpx4 mRNA (mESC; mESC + 0.05 µM 24 h, Fig 6F): 1.03 Fold of untreated control | Slc7a11 mRNA (mESC; mESC + 0.05 µM 24 h, Fig 6F): 0.99 Fold of untreated control | Cdkn1a mRNA (mESC; [6]): 2.09 Fold of untreated control | Cdkn2a mRNA (mESC; [6]): 2.49 Fold of untreated control | Glb1 mRNA (mESC; [6]): 1.35 Fold of untreated control | Il6 mRNA (mESC; [6]): 2.84 Fold of untreated control | Il8 mRNA (mESC; [6]): 1.07 Fold of untreated control | Tp53 mRNA (mESC; [6]): 0.87 Fold of untreated control | Atp7a mRNA (mESC; mESC + 0.1 µM 24 h): 3.09 Fold of control | Atp7b mRNA (mESC; mESC + 0.1 µM 24 h): 2.42 Fold of control | Ctr2 mRNA (mESC; mESC + 0.1 µM 24 h): 4.05 Fold of control | Mdr1 mRNA (mESC; mESC + 0.1 µM 24 h): 6.26 Fold of control | Mrp1 mRNA (mESC; mESC + 0.1 µM 24 h): 2.51 Fold of control | Oct2 mRNA (mESC; mESC + 0.1 µM 24 h): 0.75 Fold of control | Brca1 mRNA (mESC; mESC + 0.1 µM 24 h, Fig 5C): 1.93 Fold of mESC | Chk1 mRNA (mESC; mESC + 0.1 µM 24 h, Fig 5C): 0.68 Fold of mESC | Rad51 mRNA (mESC; mESC + 0.1 µM 24 h, Fig 5C): 1.36 Fold of mESC | Pgc1a mRNA (mESC; mESC + 0.1 µM 24 h, Fig 6D): 10.69 Fold of untreated control | Gpx4 mRNA (mESC; mESC + 0.1 µM 24 h, Fig 6F): 1.05 Fold of untreated control | Slc7a11 mRNA (mESC; mESC + 0.1 µM 24 h, Fig 6F): 1.20 Fold of untreated control | H3ac protein ([2]; Fig 1D): 0.0 Fold of mESC | H4ac protein ([2]; Fig 1D): 0.0 Fold of mESC | aTubac (acetylated α-Tubulin) protein ([2]; Fig 1D): 0.6 Fold of mESC | CHK1 protein [2, 7]: 1.7 Fold of mESC | RAD51 protein [2, 7]: 1.7 Fold of mESC | gH2AX protein [2, 7]: 4.6 Fold of mESC | p-CHK2 protein [2, 7]: 0.8 Fold of mESC | p-KAP1 protein [2, 7]: 0.0 Fold of mESC | p-RPA32 protein [2, 7]: 0.2 Fold of mESC | p-p53 protein [2, 7]: 4.2 Fold of mESC | CHK1 protein [2, 8]: 1.0 Fold of mESC | RAD51 protein [2, 8]: 1.3 Fold of mESC | gH2AX protein [2, 8]: 31.8 Fold of mESC | p-CHK2 protein [2, 8]: 0.5 Fold of mESC | p-KAP1 protein [2, 8]: 0.0 Fold of mESC | p-RPA32 protein [2, 8]: 0.1 Fold of mESC | p-p53 protein [2, 8]: 3.1 Fold of mESC | AMPKa protein ([2]; Fig 6E): 0.6 Fold of mESC | GSK3b protein ([2]; Fig 6E): 4.3 Fold of mESC | p-p70SK protein ([2]; Fig 6E): 2.8 Fold of mESC
